{
  "source": "patent US9266922B2",
  "about": "“Antigen peptide and uses thereof” (priority 2011, dated 2016)",
  "key": {"[1]": {"biological_target": "T1, HLA-A*0201 (Homo sapiens, UniProt P04439, D140Y/D185E/D98H/E176V/E277Q/G131W/G231S/I119V/I121R/I166T/I218V/L300P/L318F/N151K/N90K/P208A/P217A/Q86G/Q94H/R138H/R169H/T345S)", "test": "iTOPIA EDS MHC peptide binding assay", "conditions": "HLA-A*0201 monomer, relative to positive control peptide, 21° C. for 18 h", "text": "MHC peptide binding assay using iTOPIA EDS\nMicrotiter 96 well plates containing HLA class I MHC monomer loaded with the human β2-microglobulin and a “placeholder” peptide were used to evaluate peptide binding, affinity, and off-rate.\nThe 502 nectin4 nonapeptides were first evaluated for their ability to bind to each MHC molecule in the peptide binding assay. In this assay, the placeholder peptides were stripped from the MHC class I monomer complexes coated on plastic, which leaves the MHC class I heavy chain available as a binding partner for candidate peptides in the presence of human β2-microglobulin.\nPeptide binding was performed at 21° C. for 18 h. Revelation was done using an anti HLA-ABC-FITC mAb that binds to refolded MHC complex conformation. The relative fluorescent intensity was read using a fluorimeter (Molecular Devices, SpectraMax Gemini, Sunnyvale, Calif., USA).\nPeptides with a binding>30% of the positive control peptide were selected as “binder” and subsequently analyzed for affinity (ED50) and off-rate (T1/2)."}, "[2]": {"biological_target": "T1, HLA-A*0201", "test": "biochemical", "assay_type": "binding"}, "[3]": {"biological_target": "T1, HLA-A*0201", "test": "iScore calculation (iTOPIA system software)", "conditions": "multiparametric score of binding, off-rate and affinity"}, "[4]": {"biological_target": "T2, HLA A*0201 on CEM.T2 cell line (Homo sapiens, UniProt P04439, D140Y/D185E/D98H/E176V/E277Q/G131W/G231S/I119V/I121R/I166T/I218V/L300P/L318F/N151K/N90K/P208A/P217A/Q86G/Q94H/R138H/R169H/T345S)", "T2 construct": "This cell line expresses HLA A*0201 but is deficient for TAP transporter; endogenous in cells; host or cells: CEM.T2 (T2) cell line", "test": "Cellular binding assay, HLA stabilization on CEM.T2 cells", "assay_type": "cell-based", "procedure": "The CEM.T2 cell line (T2) is defective in the processing of proteins for presentation by MHC class 1 molecules. This cell line expresses HLA A*0201 but is deficient for TAP transporter. T2 is classically used to assess the Peptide/HLA-A*0201 Complex Stability[H. W. Nijman et al., 1993]\nFor HLA-A2*0201 stabilization, T2 cells (2×10^5/well) were incubated in serum-free RPMI (Gibco®-France) with 100 μM of selected peptide, at 37° C. for 4 h. Cells were washed two times with PBS supplemented with 1% BSA and stained with fluorescein isothiocyanate-conjugated anti HLA-A2 (Clone BB7.2) (BD Bioscience Pharmingen-France-) at 4° C. for 45 min. After 3 washes, cells were fixed in PBS supplemented with 2% paraformaldehyde and analyzed by FACS (FACScan, BD Bioscience). The percentage of peptide binding was calculated as follows: % Binding={(MFI peptide sample−MFI Neg control)/(MFI Pos control−MFI Neg control)}×100\nNegative control was done without peptide."}, "[5]": {"biological_target": "T2, HLA A*0201 on CEM.T2 cell line", "test": "Cellular dissociation assay on CEM.T2 cells", "assay_type": "cell-based", "conditions": "after Brefeldin A 1 h and 3 h in serum-free RPMI at 37° C. (4 h)", "procedure": "Cellular Dissociation Assay\nAfter HLA-A2*0201 stabilization with peptides at 37° C. for 4 h, T2 cells were incubated for 1 h, in serum-free RPMI containing Brefeldin A (10 μg/ml), an inhibitor of the transport of secretory and lysosomal proteins [G. J. Strous et al., 1993]. After 3 washes, T2 cells were incubated for 3 h in serum-free RPMI at 37° C. Binding was then measured by FACS and after 4 h incubation. Percentage of Residual Binding (% RB) was calculated as follows: […]"}, "[6]": {"biological_target": "T1, HLA-A*0201", "test": "F-Score ranking (iTOPIA and CEM T2)", "conditions": "overall ranking by iTOPIA and CEM T2 assays, nectin4 and reference peptides together"}, "[7]": {"system": "MDA-MB-231 breast carcinoma cell line", "test": "CTL cytotoxicity, 4 h 51Cr-release assay", "assay_type": "cell-based, human", "conditions": "FIG. 4D"}, "[8]": {"biological_target": "T1, HLA-A*0201", "test": "iTOPIA EDS and […] analyses (FIG. 5B)", "assay_type": "binding", "conditions": "iTOPIA EDS and SYFPEITHI", "procedure": "(§1) A library of 502 nonapeptides which span the entire 510 amino acid sequence of human nectin4, was synthesized (JPT Peptide Technologies GmbH, Berlin Germany). A series of 9 peptides described in the literature was selected and used as reference (Table 1). Peptides (purity >80%) were dissolved in DMSO at a concentration of 10 mM and stored at −20° C. Specific control peptides for each allele were supplied by the manufacturer of the iTOPIA Epitope Discovery System (EDS) (Beckman Coulter Inc., San Diego, Calif., USA). The 502 peptides were tested for binding to eight alleles (HLA-A*0101; HLA-A*0201; HLA-A*0301; HLA-A*1101; HLA-A*2402; […]; HLA-B*0801; HLA-B*1501) with the iTOPIA EDS."}, "[9]": {"biological_target": "HLA-A*2402 (Homo sapiens, UniProt P04439, D101N/D140Y/D185E/E176V/E190D/F33S/G103R/G107R/I119L/I121M/I306V/K335N/L105A/L180Q/L300P/N151K/N90K/Q86E/Q94H/R106L/R138H/R89G/T104I/T345S/V100E/W191G/Y123F)", "test": "iTOPIA EDS and […] analyses (FIG. 5B)", "assay_type": "binding", "conditions": "iTOPIA EDS and SYFPEITHI", "procedure": "as §1"}, "[10]": {"biological_target": "HLA-B*1501 (Homo sapiens, UniProt P01889, A329T/A93T/A95T/C349S/D201E/D98Y/E187L/E204Q/E69M/E70A/K202T/N87E/Q94N/R155S/R180W/S121R/S35A/S48A/V306I/V36M/Y140S/Y91S)", "test": "iTOPIA EDS and […] analyses (FIG. 5B)", "assay_type": "binding", "conditions": "iTOPIA EDS and SYFPEITHI", "procedure": "as §1"}},
  "note": "Where two headings read alike, the source gives them in different places. Residues, ends and D or L forms follow the SMILES beside them.",
  "data": [
    {"compound": "CC(C)C[C@H](NC(=O)[C@@H](N)CC(C)C)C(=O)N[C@@H](C)C(=O)N[C@@H](CO)C(=O)N[C@@H](Cc1ccccc1)C(=O)N[C@H](C(=O)NCC(=O)N[C@@H](CCCNC(=N)N)C(=O)N[C@@H](CS)C(=O)O)[C@@H](C)O", "note": "[Peptide 21] (H-LLASFTGRC-OH; N-terminus and C-terminus assumed)", "values": [
      {"measurement": "% Binding", "setting": "[1]", "value": 91, "unit": "%"},
      {"measurement": "EC50", "setting": "[2]; FIG. 2A, peptide concentration 10^−4 to 10^−9 M, read-out: estimated dose to reach 50% maximal binding (ED50)", "value": "~100", "unit": "nM"},
      {"measurement": "EC50", "setting": "[2]; peptide concentration giving 50% of optimal binding, 10^−4 to 10^−9 M, 21° C. for 18 h, read-out: Affinity (ED50)", "value": 600, "unit": "nM"},
      {"measurement": "iScore", "setting": "[3]", "value": 0.727},
      {"measurement": "CEM.T2 % Binding", "setting": "[4]; 100 μM peptide, 37° C. for 4 h, FACS anti HLA-A2, relative to HBV positive control peptide", "value": 44, "unit": "%"},
      {"measurement": "CEM.T2 % Residual Binding", "setting": "[5]", "value": 86, "unit": "%"},
      {"measurement": "RANK F-Score", "setting": "[6]", "value": 11}
    ]},
    {"compound": "CC(C)C[C@H](NC(=O)[C@H](CO)NC(=O)[C@@H]1CCCN1C(=O)[C@H](CC(C)C)NC(=O)[C@@H]1CCCN1C(=O)[C@@H]1CCCN1C(=O)[C@@H](NC(=O)[C@H](CC(C)C)NC(=O)[C@@H](N)C(C)C)C(C)C)C(=O)O", "note": "[Peptide 145] (H-VLVPPLPSL-OH; N-terminus and C-terminus assumed)", "values": [
      {"measurement": "% Binding", "setting": "[1]", "value": 67, "unit": "%"},
      {"measurement": "EC50", "setting": "[2]; Affinity (ED50)", "value": 500, "unit": "nM"},
      {"measurement": "EC50", "setting": "[2]; estimated dose to reach 50% maximal binding (ED50)", "value": "~100", "unit": "nM"},
      {"measurement": "iScore", "setting": "[3]", "value": 0.783},
      {"measurement": "HLA-A*0201 class I level on T2 cells", "setting": "[4]; flow cytometry, FIG. 3A and 3B", "value": "increase the HLA-A*0201 class I level on T2 cells"},
      {"measurement": "lysis by peptide-specific CTL of MDA-MB-231 cell line expressing nectin4", "setting": "[7]; CTL isolated with HLA-A2/peptide tetramer, target not peptide loaded", "value": "able to kill the MDA-MB-231 cell line expressing nectin4"},
      {"measurement": "lysis by peptide-specific CTL of wild-type MDA-MB-231 cells", "setting": "[7]; nectin4 negative HLA-A*0201 target", "value": "not the wild-type MDA-MB-231 cells"},
      {"measurement": "binder class for HLA-A*0201", "setting": "[8]", "value": "strong binder"},
      {"measurement": "binder class for HLA-A*2402", "setting": "[9]", "value": "strong binder"},
      {"measurement": "binder class for HLA-B*1501", "setting": "[10]", "value": "strong binder"}
    ]}
  ]
}
